Reference: PubChem BioAssay AID248 (DTP/NCI, 2004)
“And” between values parts separate entries of the source, which are not always exact repeats. Equal values may be shown once. Inconclusive results and toxic doses are left out.

Test system: L1210 leukemia ip in BDF1 mice, survival T/C
Test: NCI In Vivo Anticancer Drug Screen. Data for tumor model L1210 Leukemia (intraperitoneal) in B6D2F1 (BDF1) mice
Conditions: endpoint: mean survival time, higher = longer survival
Outline: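 Survival endpoint. Drug-treated group vs vehicle group, expressed as T divided by C. Tumor passaged by transplantation.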

[1] = dose: 100.0 mg/kg/injection, schedule: Q04DX002 (ip), vehicle: Klucel (hydroxypropylcellulose) (HPC)
[2] = dose: 200.0 mg/kg/injection, schedule: Q04DX002 (ip), vehicle: Klucel (hydroxypropylcellulose) (HPC)
[3] = dose: 100.0 mg/kg/injection, schedule: Q01DX009 (ip), vehicle: Klucel (hydroxypropylcellulose) (HPC)
[4] = dose: 200.0 mg/kg/injection, schedule: Q01DX009 (ip), vehicle: Klucel (hydroxypropylcellulose) (HPC)
[5] = dose: 400.0 mg/kg/injection, schedule: Q01DX009 (ip), vehicle: Klucel (hydroxypropylcellulose) (HPC)
[6] = dose: 100.0 mg/kg/injection, schedule: Q04DX002 (ip), vehicle: saline with Tween-80
[7] = dose: 200.0 mg/kg/injection, schedule: Q04DX002 (ip), vehicle: saline with Tween-80
[8] = dose: 100.0 mg/kg/injection, schedule: Q01DX009 (ip), vehicle: saline with Tween-80
[9] = dose: 100.0 mg/kg/injection, schedule: Q04DX003 (ip), vehicle: saline with Tween-80
[10] = dose: 200.0 mg/kg/injection, schedule: Q01DX009 (ip), vehicle: saline with Tween-80
[11] = dose: 200.0 mg/kg/injection, schedule: Q04DX003 (ip), vehicle: saline with Tween-80
[12] = dose: 400.0 mg/kg/injection, schedule: Q04DX003 (ip), vehicle: saline with Tween-80
[13] = dose: 100.0 mg/kg/injection, schedule: Q04DX003 (ip), vehicle: Klucel (hydroxypropylcellulose) (HPC)
[14] = dose: 200.0 mg/kg/injection, schedule: Q04DX003 (ip), vehicle: Klucel (hydroxypropylcellulose) (HPC)
[15] = dose: 200.0 mg/kg/injection, schedule: Q01DX009 (ip), vehicle: saline
[16] = dose: 100.0 mg/kg/injection, schedule: Q01DX001 (ip), vehicle: saline
[17] = dose: 200.0 mg/kg/injection, schedule: Q01DX001 (ip), vehicle: saline
[18] = dose: 400.0 mg/kg/injection, schedule: Q01DX001 (ip), vehicle: saline
[19] = dose: 400.0 mg/kg/injection, schedule: Q04DX003 (ip), vehicle: Klucel (hydroxypropylcellulose) (HPC)

O=C(O)COc1ccc(F)cn1
T/C [1]: 101 % of control | T/C [2]: 93 % of control | T/C (dose: 400.0 mg/kg/injection, schedule: Q04DX002 (ip), vehicle: Klucel (hydroxypropylcellulose) (HPC)): 114 % of control

COc1ccccc1C(=O)N/N=C/c1ccncc1
T/C [3]: 94 % of control | T/C [4]: 94 % of control | T/C [5]: 97 % of control

Cc1cncc2c(=O)n(-c3ccccc3)n(C)c12
T/C (dose: 50.0 mg/kg/injection, schedule: Q01DX009 (ip), vehicle: Klucel (hydroxypropylcellulose) (HPC)): 93 % of control | T/C [3]: 96 % of control

CCC(C)CCC(C)C1CCC2C3CCC4C=C(OC(C)=O)CCC4(C)C3CCC12C (stereo not given)
T/C [6]: 103 % of control | T/C [7]: 98 % of control | T/C (dose: 400.0 mg/kg/injection, schedule: Q04DX002 (ip), vehicle: saline with Tween-80): 98 % of control

COC(=O)C1(C(=O)OC)C2C(=O)C3C(C21)C3(C(=O)OC(C)(C)C)C(=O)OC(C)(C)C (stereo not given)
T/C [8]: 95 % of control | T/C [9]: 101 % of control and 98 % of control | T/C [10]: 92 % of control | T/C [11]: 102 % of control and 88 % of control | T/C (dose: 400.0 mg/kg/injection, schedule: Q01DX009 (ip), vehicle: saline with Tween-80): 92 % of control | T/C [12]: 91 % of control and 111 % of control

CC(=O)NC(Cc1ccccc1)C(=O)O (stereo not given)
T/C (dose: 50.0 mg/kg/injection, schedule: Q04DX003 (ip), vehicle: Klucel (hydroxypropylcellulose) (HPC)): 94 % of control | T/C [13]: 103 % of control | T/C [14]: 100 % of control

O=c1[nH]c(=O)n(C2CC(O)C(CO)O2)cc1Br (stereo not given)
T/C (dose: 50.0 mg/kg/injection, schedule: Q02DX Z (ip), vehicle: carboxymethylcellulose (CMC)): 108 % of control | T/C (dose: 100.0 mg/kg/injection, schedule: Q02DX Z (ip), vehicle: carboxymethylcellulose (CMC)): 107 % of control | T/C (dose: 150.0 mg/kg/injection, schedule: Q02DX Z (ip), vehicle: carboxymethylcellulose (CMC)): 109 % of control | T/C (dose: 200.0 mg/kg/injection, schedule: Q02DX Z (ip), vehicle: carboxymethylcellulose (CMC)): 113 % of control | T/C (dose: 250.0 mg/kg/injection, schedule: Q02DX Z (ip), vehicle: carboxymethylcellulose (CMC)): 109 % of control | T/C (dose: 300.0 mg/kg/injection, schedule: Q02DX Z (ip), vehicle: carboxymethylcellulose (CMC)): 113 % of control | T/C (dose: 400.0 mg/kg/injection, schedule: Q02DX Z (ip), vehicle: carboxymethylcellulose (CMC)): 110 % of control | T/C (dose: 500.0 mg/kg/injection, schedule: Q02DX Z (ip), vehicle: carboxymethylcellulose (CMC)): 114 % of control | T/C (dose: 600.0 mg/kg/injection, schedule: Q01DX009 (ip), vehicle: carboxymethylcellulose (CMC)): 123 % of control | T/C (dose: 600.0 mg/kg/injection, schedule: Q02DX Z (ip), vehicle: carboxymethylcellulose (CMC)): 122 % of control | T/C (dose: 800.0 mg/kg/injection, schedule: Q01DX Z (ip), vehicle: carboxymethylcellulose (CMC)): 122 % of control | T/C (dose: 1000.0 mg/kg/injection, schedule: Q01DX Z (ip), vehicle: carboxymethylcellulose (CMC)): 113 % of control | T/C (dose: 1800.0 mg/kg/injection, schedule: Q01DX009 (ip), vehicle: carboxymethylcellulose (CMC)): 102 % of control

Nc1ccc(SCCCCCCSc2ccc(N)cc2)cc1
T/C (dose: 100.0 mg/kg/injection, schedule: Q04DX003 (ip), vehicle: other): 94 % of control

CC1(C)N=C(N)N=C(N)N1c1ccc(CCC(=O)Nc2ccc(S(=O)(=O)F)cc2)cc1
T/C (dose: 0.8 mg/kg/injection, schedule: Q01DX009 (ip), vehicle: saline): 97 % of control | T/C (dose: 4.0 mg/kg/injection, schedule: Q01DX009 (ip), vehicle: saline): 105 % of control | T/C (dose: 8.8 mg/kg/injection, schedule: Q01DX009 (ip), vehicle: saline): 117 % of control | T/C (dose: 13.0 mg/kg/injection, schedule: Q01DX009 (ip), vehicle: saline): 121 % of control | T/C (dose: 20.0 mg/kg/injection, schedule: Q01DX009 (ip), vehicle: saline): 121 % of control | T/C (dose: 50.0 mg/kg/injection, schedule: Q01DX009 (ip), vehicle: saline): 163 % of control | T/C (dose: 75.0 mg/kg/injection, schedule: Q## X003 (ip), vehicle: saline): 122 % of control | T/C [15]: 100 % of control | T/C (dose: 600.0 mg/kg/injection, schedule: Q## X003 (ip), vehicle: saline): 102 % of control

CCCCN=C(N)c1ccc(S(=O)(=O)N=C(N)N)cc1
T/C [16]: 97 % of control | T/C [17]: 101 % of control | T/C [18]: 97 % of control

CCOC(=O)Cc1ccc(CC(=O)OCC)cc1
T/C (dose: 75.0 mg/kg/injection, schedule: Q04DX003 (ip), vehicle: saline): 100 % of control | T/C (dose: 150.0 mg/kg/injection, schedule: Q04DX003 (ip), vehicle: saline): 105 % of control | T/C (dose: 300.0 mg/kg/injection, schedule: Q04DX003 (ip), vehicle: saline): 96 % of control

C(=C\CN(Cc1ccccc1)Cc1ccccc1)/CN(Cc1ccccc1)Cc1ccccc1
T/C [13]: 90 % of control | T/C [14]: 87 % of control | T/C [19]: 87 % of control

Cc1ccc(C(=O)O)cc1S(=O)(=O)Cl
T/C (dose: 50.0 mg/kg/injection, schedule: Q01DX009 (ip), vehicle: saline with Tween-80): 113 % of control | T/C [8]: 98 % of control | T/C [9]: 102 % of control | T/C [10]: 95 % of control | T/C [11]: 87 % of control | T/C [12]: 92 % of control

COc1nc(NNC(N)=S)ccc1[N+](=O)[O-]
T/C [13]: 91 % of control | T/C [14]: 93 % of control | T/C [19]: 93 % of control

S=C(S)N1CCOCC1
T/C (dose: 50.0 mg/kg/injection, schedule: Q01DX009 (ip), vehicle: saline sonified): 104 % of control | T/C [16]: 105 % of control | T/C (dose: 100.0 mg/kg/injection, schedule: Q01DX009 (ip), vehicle: saline sonified): 100 % of control | T/C (dose: 100.0 mg/kg/injection, schedule: Q01DX009 (ip), vehicle: saline): 98 % of control | T/C (dose: 100.0 mg/kg/injection, schedule: Q04DX003 (ip), vehicle: saline): 93 % of control | T/C [17]: 97 % of control | T/C (dose: 200.0 mg/kg/injection, schedule: Q01DX009 (ip), vehicle: saline sonified): 94 % of control | T/C [15]: 106 % of control | T/C (dose: 200.0 mg/kg/injection, schedule: Q04DX003 (ip), vehicle: saline): 97 % of control | T/C (dose: 400.0 mg/kg/injection, schedule: Q01DX009 (ip), vehicle: saline): 96 % of control | T/C (dose: 400.0 mg/kg/injection, schedule: Q04DX003 (ip), vehicle: saline): 95 % of control

CC1CCCCN1C(=O)Nc1cccc(F)c1 (stereo not given)
T/C [3]: 104 % of control | T/C [4]: 102 % of control | T/C [5]: 111 % of control

Cc1cc(Cl)ccc1OCCCC(=O)O
T/C (dose: 50.0 mg/kg/injection, schedule: Q01DX001 (ip), vehicle: saline): 102 % of control | T/C [16]: 98 % of control | T/C [17]: 98 % of control | T/C [18]: 104 % of control

O=[N+]([O-])c1cccc(OCCCOc2cccc([N+](=O)[O-])c2)c1
T/C [16]: 103 % of control | T/C [17]: 102 % of control | T/C [18]: 100 % of control

CCOC(=O)c1ccc2c(c1)Cc1c-2cc(Br)c(N)c1Br
T/C (dose: 100.0 mg/kg/injection, schedule: Q01DX001 (ip), vehicle: carboxymethylcellulose (CMC)): 100 % of control | T/C (dose: 200.0 mg/kg/injection, schedule: Q01DX001 (ip), vehicle: carboxymethylcellulose (CMC)): 102 % of control | T/C (dose: 400.0 mg/kg/injection, schedule: Q01DX001 (ip), vehicle: carboxymethylcellulose (CMC)): 91 % of control

Nc1ccc(-c2ccc(N)c(Br)c2)cc1Br
T/C [1]: 99 % of control | T/C [2]: 93 % of control

CCCCCCCCCCCCCCCCCCNC(=S)N(C)C
T/C [13]: 89 % of control | T/C [14]: 86 % of control | T/C [19]: 89 % of control

CCCCCCCCC(CO)(CCCCCCC)C(=O)O (stereo not given)
T/C [6]: 88 % of control | T/C [7]: 88 % of control

COC(OC)c1nc(N)[nH]c(=O)c1Cc1ccc([N+](=O)[O-])cc1
T/C (dose: 100.0 mg/kg/injection, schedule: Q01DX001 (ip), vehicle: Klucel (hydroxypropylcellulose) (HPC)): 110 % of control | T/C (dose: 200.0 mg/kg/injection, schedule: Q01DX001 (ip), vehicle: Klucel (hydroxypropylcellulose) (HPC)): 102 % of control | T/C (dose: 400.0 mg/kg/injection, schedule: Q01DX001 (ip), vehicle: Klucel (hydroxypropylcellulose) (HPC)): 96 % of control
